Structures are written as SMILES. Numbered stars: 1 amine (or outer) side, 2 acyl side, 3 side chain; on linkers, the order of the positions; unused ones are H or OH. Bridge positions count the residues as written; N and C are the ends. Square brackets hold non-standard residues; d marks the D form. Peptide text beside a SMILES is read from it. * marks the point of attachment. ξ: configuration not given here. Ala(Nα-(CH2)3NH) = C[C@@H](C(=O)[*:2])N(CCCN[*:3])[*:1]; Tyr(3-NO2) = N[C@@H](Cc1ccc(O)c([N+](=O)[O-])c1)C(=O)O; X46 = COCc1ccc(-c2ccc(C[C@H](N[*:1])C(=O)[*:2])cc2)cc1; X40 = O=C([C@H](Cc1ccc(-c2cccc(O)c2)cc1)N[*:1])[*:2]; Phe(4-COOH) = N[C@@H](Cc1ccc(C(=O)O)cc1)C(=O)O; Bip = N[C@@H](Cc1ccc(-c2ccccc2)cc1)C(=O)O; Phe(3-Cl) = N[C@@H](Cc1cccc(Cl)c1)C(=O)O; Phe(3-Me) = Cc1cccc(C[C@H](N)C(=O)O)c1; Val(3-OH) = CC(C)(O)[C@H](N)C(=O)O; aIle = CC[C@@H](C)[C@H](N)C(=O)O; 4Pal = N[C@@H](Cc1ccncc1)C(=O)O; Cha = N[C@@H](CC1CCCCC1)C(=O)O; Cit = NC(=O)NCCC[C@H](N)C(=O)O; Pip = O=C(O)[C@@H]1CCCCN1; Carboxymethyl = O=C(O)C*; NMeA = CN[C@@H](C)C(=O)O; Orn = NCCC[C@H](N)C(=O)O; Dab = NCC[C@H](N)C(=O)O; Dap = NC[C@H](N)C(=O)O; ξV = CC(C)C(N)C(=O)O

T1 sequence (Q15116 25-288): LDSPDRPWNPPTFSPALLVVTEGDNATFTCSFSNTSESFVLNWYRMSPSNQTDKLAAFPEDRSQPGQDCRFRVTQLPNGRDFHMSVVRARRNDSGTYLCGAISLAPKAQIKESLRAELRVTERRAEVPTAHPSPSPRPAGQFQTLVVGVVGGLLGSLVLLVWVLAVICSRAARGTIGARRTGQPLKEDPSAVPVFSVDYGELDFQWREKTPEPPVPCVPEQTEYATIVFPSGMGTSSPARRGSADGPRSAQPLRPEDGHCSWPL

One assay addresses T1, PE-labeled human PD-L1-Ig binding to Jurkat cell line over-expressing human PD-1 (Jurkat-PD-1) (Homo sapiens, UniProt Q15116).
T1 construct: expressed in transfected cells; host or cells: Jurkat
As to the kind of experiment: Jurkat-PD-1 Cell Binding High-Content Screening Assay (CBA): Method 1. The note with it: Jurkat HPDL1 PD1 IC50 (Method 1), cells printed in nM, Jurkat-hPD-1 cells, PE-labeled PD-L1-Ig 20 nM final; unit nM.
In the case of `CC(C)C[C@@H]1NC(=O)[C@H](CCN)NC(=O)[C@@H](CC(C)C)NC(=O)[C@H](C)N(C)C(=O)[C@H](C(C)C)NC(=O)[C@H](Cc2ccc(-c3ccccc3)cc2)NC(=O)[C@H](C(C)C)NC(=O)[C@H](Cc2c[nH]c3ccccc23)NC(=O)[C@H](CC(=O)O)NC(=O)[C@H](Cc2ccc(C(=O)O)cc2)NC(=O)[C@H](CN)NC(=O)CSC[C@@H](C(=O)N[C@@H](C)C(N)=O)NC(=O)[C@H]([C@@H](C)O)NC(=O)[C@H](C(C)C)NC1=O` [Compound 1416] ({CH2CO}-[Dap][Phe(4-COOH)]DWV[Bip]V[NMeA][dL][Dab]LVTCA-NH2; thioether N-14), the IC50 was 4.7 nM.

Still in this assay, the particulars now being: Jurkat-hPD-1 cells, PE-labeled PD-L1-Ig 20 nM final; read-out: Jurkat HPDL1 PD1 IC50 (uM) (Method 1).
As for `CC(C)C[C@H]1NC(=O)[C@H](C)N(C)C(=O)[C@H](CCCCN)NC(=O)[C@H](Cc2ccc(-c3ccccc3)cc2)NC(=O)[C@H](C(C)C)NC(=O)[C@H](Cc2c[nH]c3ccccc23)NC(=O)[C@H](CC(=O)O)NC(=O)[C@H](Cc2ccncc2)NC(=O)[C@H](Cc2ccc(OCC(=O)O)cc2)NC(=O)CSC[C@@H](C(N)=O)NC(=O)[C@H](CO)NC(=O)[C@H](C(C)C)NC(=O)[C@H](CC2CCCCC2)NC(=O)[C@H](CC(N)=O)NC1=O` [Compound 2244] ({CH2CO}-Y(Carboxymethyl)[4Pal]DWV[Bip]K[NMeA][dL]N[Cha]VSC-NH2; thioether N-14), the half-inhibitory concentration (IC50) is 40 nM. Turning to `CC(C)C[C@@H]1NC(=O)CSC[C@@H](C(=O)N[C@@H](C)C(N)=O)NC(=O)[C@H](CO)NC(=O)[C@H](C(C)C)NC(=O)[C@H](CC(C)C)NC(=O)[C@H](CCCNC(=N)N)NC(=O)[C@@H](CC(C)C)NC(=O)[C@H](C)N(C)C(=O)[C@H](CCCNC(=N)N)NC(=O)[C@H](Cc2ccc(-c3ccccc3)cc2)NC(=O)[C@H](C(C)C)NC(=O)[C@H](Cc2c[nH]c3ccccc23)NC(=O)[C@H](CC(=O)O)NC(=O)[C@H](Cc2ccc(O)cc2)NC1=O` [Compound 1037] ({CH2CO}-LYDWV[Bip]R[NMeA][dL]RLVSCA-NH2; thioether N-14), the concentration for half-maximal inhibition (IC50) stood at 140 nM.

For `Cc1cccc(C[C@@H]2NC(=O)[C@H](CC(=O)O)NC(=O)[C@H](Cc3ccc(O)cc3)NC(=O)[C@H](CC(N)=O)NC(=O)CSC[C@@H](C(=O)N[C@@H](CCN)C(N)=O)NC(=O)[C@H](CCC(=O)O)NC(=O)[C@H](C(C)C)NC(=O)[C@H](CC3CCCCC3)NC(=O)[C@H](CCN)NC(=O)[C@@H](CC(C)C)NC(=O)[C@H](C)N(C)C(=O)[C@H](CCCNC(N)=O)NC(=O)[C@H](Cc3ccc(-c4ccccc4)cc3)NC(=O)[C@H](C(C)(C)O)NC2=O)c1` [Compound 1709] ({CH2CO}-NYD[Phe(3-Me)][Val(3-OH)][Bip][Cit][NMeA][dL][Dab][Cha]VEC[Dab]-NH2; thioether N-14), the 50% inhibitory concentration (IC50) was 30 nM. On the same count and under the same terms, next, `COCc1ccc(-c2ccc(C[C@@H]3NC(=O)[C@H](C(C)C)NC(=O)[C@H](Cc4c[nH]c5ccccc45)NC(=O)[C@H](CC(=O)O)NC(=O)[C@H](Cc4ccc(O)cc4)NC(=O)[C@H](CC(N)=O)NC(=O)CSC[C@@H](C(=O)N[C@@H](C)C(N)=O)NC(=O)[C@H]([C@@H](C)O)NC(=O)[C@H](C(C)C)NC(=O)[C@H](CC(C)C)NC(=O)[C@H](CCN)NC(=O)[C@@H](CC(C)C)NC(=O)[C@H](C)N(C)C(=O)[C@H](CCCNC(=N)N)NC3=O)cc2)cc1` [Compound 1205] ({CH2CO}-NYDWV[X46]R[NMeA][dL][Dab]LVTCA-NH2; thioether N-14): 810 nM; `CC(C)C[C@@H]1NC(=O)[C@H](CCN)NC(=O)[C@@H](CC(C)C)NC(=O)[C@H](C)N(C)C(=O)[C@H](CCCNC(=N)N)NC(=O)[C@H](Cc2ccc(-c3ccccc3)cc2)NC(=O)[C@H](C(C)C)NC(=O)[C@H](Cc2c[nH]c3ccccc23)NC(=O)[C@H](CC(=O)O)NC(=O)[C@H](Cc2ccc(O)c([N+](=O)[O-])c2)NC(=O)[C@H](CC(N)=O)NC(=O)CSC[C@@H](C(=O)N[C@@H](C)C(N)=O)NC(=O)[C@H]([C@@H](C)O)NC(=O)[C@H](C(C)C)NC1=O` [Compound 1160] ({CH2CO}-N[Tyr(3-NO2)]DWV[Bip]R[NMeA][dL][Dab]LVTCA-NH2; thioether N-14): 30 nM; `Cc1cccc(C[C@@H]2NC(=O)[C@H](CC(=O)O)NC(=O)[C@H](Cc3ccc(OCC(=O)O)cc3)NC(=O)[C@H](CN)NC(=O)CSC[C@@H](C(N)=O)NC(=O)[C@H](CCCN)NC(=O)[C@H](C(C)C)NC(=O)[C@H](CC3CCCCC3)NC(=O)[C@H](CCN)NC(=O)[C@@H](CC(C)C)NC(=O)[C@@H]3CCCCN3C(=O)[C@H](Cc3ccc(OCC(=O)O)cc3)NC(=O)[C@H](Cc3ccc(-c4ccccc4)cc3)NC(=O)[C@H](Cc3ccc(OCC(=O)O)cc3)NC2=O)c1` [Compound 1890] ({CH2CO}-[Dap]Y(Carboxymethyl)D[Phe(3-Me)]Y(Carboxymethyl)[Bip]Y(Carboxymethyl)[Pip][dL][Dab][Cha]V[Orn]C-NH2; thioether N-14): 150 nM. Same read-out and setting: next, `CC(=O)NCCCC[C@@H]1NC(=O)[C@H](C(C)C)NC(=O)[C@H](CC2CCCCC2)NC(=O)[C@H](CCN)NC(=O)[C@@H](CC(C)C)NC(=O)[C@H](C)N(C)C(=O)[C@H](CCC(N)=O)NC(=O)[C@H](Cc2ccc(-c3ccccc3)cc2)NC(=O)[C@H](C(C)C)NC(=O)[C@H](Cc2cccc(C)c2)NC(=O)[C@H](CC(=O)O)NC(=O)[C@H](Cc2ccc(OCC(=O)O)cc2)NC(=O)[C@H](Cc2ccc(OCC(=O)O)cc2)NC(=O)CSC[C@@H](C(=O)N[C@@H](CCN)C(N)=O)NC1=O` [Compound 2129] ({CH2CO}-Y(Carboxymethyl)Y(Carboxymethyl)D[Phe(3-Me)]V[Bip]Q[NMeA][dL][Dab][Cha]VK(Ac)C[Dab]-NH2; thioether N-14): 10 nM. Same read-out and setting: next, `CC(C)C[C@@H]1NC(=O)[C@H](CCN)NC(=O)[C@@H](CC(C)C)NC(=O)[C@H](C)N(C)C(=O)[C@H](CCCNC(=N)N)NC(=O)[C@H](Cc2ccc(-c3ccccc3)cc2)NC(=O)[C@H](C(C)C)NC(=O)[C@H](Cc2c[nH]c3ccccc23)NC(=O)[C@H](CC(=O)O)NC(=O)[C@H](Cc2ccc(O)cc2)NC(=O)[C@H](Cc2ccccc2)NC(=O)CSC[C@@H](C(=O)N[C@@H](CO)C(N)=O)NC(=O)[C@H]([C@@H](C)O)NC(=O)[C@H](C(C)C)NC1=O` [Compound 1178] ({CH2CO}-FYDWV[Bip]R[NMeA][dL][Dab]LVTCS-NH2; thioether N-14): 50 nM; `CC(C)C[C@@H]1NC(=O)[C@H](CCN)NC(=O)[C@@H](CC(C)C)NC(=O)[C@H](C)N(C)C(=O)[C@H](CCCNC(=N)N)NC(=O)[C@H](Cc2ccc(-c3ccccc3)cc2)NC(=O)[C@H](C(C)C)NC(=O)[C@H](Cc2cccc(Cl)c2)NC(=O)[C@H](CC(=O)O)NC(=O)[C@H](Cc2ccc(OCC(=O)O)cc2)NC(=O)[C@H](CN)NC(=O)CSC[C@@H](C(=O)N[C@@H](C)C(N)=O)NC(=O)[C@H]([C@@H](C)O)NC(=O)[C@H](C(C)C)NC1=O` [Compound 1458] ({CH2CO}-[Dap]Y(Carboxymethyl)D[Phe(3-Cl)]V[Bip]R[NMeA][dL][Dab]LVTCA-NH2; thioether N-14): 40 nM; `CC(C)C[C@@H]1NC(=O)[C@H](CCN)NC(=O)[C@@H](CC(C)C)NC(=O)[C@H](C)N(CCCN)C(=O)[C@H](CCCNC(=N)N)NC(=O)[C@H](Cc2ccc(-c3ccccc3)cc2)NC(=O)[C@H](C(C)C)NC(=O)[C@H](Cc2c[nH]c3ccccc23)NC(=O)[C@H](CC(=O)O)NC(=O)[C@H](Cc2ccc(O)cc2)NC(=O)[C@H](CC(N)=O)NC(=O)CSC[C@@H](C(=O)N[C@@H](C)C(N)=O)NC(=O)[C@H]([C@@H](C)O)NC(=O)[C@H](C(C)C)NC1=O` [Compound 1209] ({CH2CO}-NYDWV[Bip]R[Ala(Nα-(CH2)3NH)][dL][Dab]LVTCA-NH2; thioether N-14): 140 nM. Take `CC[C@@H](C)[C@@H]1NC(=O)[C@H](Cc2ccc(-c3ccccc3)cc2)NC(=O)[C@H](Cc2cnc[nH]2)NC(=O)[C@H](Cc2c[nH]c3ccccc23)NC(=O)[C@H](CC(=O)O)NC(=O)[C@H](Cc2ccc(C(=O)O)cc2)NC(=O)[C@H](Cc2ccc(OCC(=O)O)cc2)NC(=O)CSC[C@@H](C(=O)N[C@@H](CCCCN)C(N)=O)NC(=O)[C@H](CO)NC(=O)C(C(C)C)NC(=O)[C@H](CC(C)C)NC(=O)[C@H](CC(N)=O)NC(=O)[C@@H](CC(C)C)NC(=O)[C@H](C)N(C)C1=O` (stereo partly drawn) [Compound 2101] ({CH2CO}-Y(Carboxymethyl)[Phe(4-COOH)]DWH[Bip][aIle][NMeA][dL]NL[ξV]SCK-NH2; thioether N-14): the IC50 was 110 nM. On the same count and under the same terms, next, `CC(C)C[C@@H]1NC(=O)[C@H](CCN)NC(=O)[C@@H](CC(C)C)NC(=O)[C@H](C)N(C)C(=O)[C@H](CCCNC(N)=O)NC(=O)[C@H](Cc2ccc(-c3ccccc3)cc2)NC(=O)[C@H](C(C)C)NC(=O)[C@H](Cc2c[nH]c3ccccc23)NC(=O)[C@H](CC(=O)O)NC(=O)[C@H](Cc2ccc(O)c([N+](=O)[O-])c2)NC(=O)[C@H](Cc2ccncc2)NC(=O)CSC[C@@H](C(=O)N[C@@H](C)C(N)=O)NC(=O)[C@H]([C@@H](C)O)NC(=O)[C@H](C(C)C)NC1=O` [Compound 1336] ({CH2CO}-[4Pal][Tyr(3-NO2)]DWV[Bip][Cit][NMeA][dL][Dab]LVTCA-NH2; thioether N-14): 10 nM; `CC(C)C[C@@H]1NC(=O)[C@H](CCN)NC(=O)[C@@H](CC(C)C)NC(=O)[C@H](C)N(C)C(=O)[C@H](CCCNC(=N)N)NC(=O)[C@H](Cc2ccc(-c3cccc(O)c3)cc2)NC(=O)[C@H](C(C)C)NC(=O)[C@H](Cc2c[nH]c3ccccc23)NC(=O)[C@H](CC(=O)O)NC(=O)[C@H](Cc2ccc(O)cc2)NC(=O)[C@H](CC(N)=O)NC(=O)CSC[C@@H](C(=O)N[C@@H](C)C(N)=O)NC(=O)[C@H]([C@@H](C)O)NC(=O)[C@H](C(C)C)NC1=O` [Compound 1212] ({CH2CO}-NYDWV[X40]R[NMeA][dL][Dab]LVTCA-NH2; thioether N-14): 690 nM.

Source of the values: US20240409585A1, “MACROCYCLIC IMMUNOMODULATORS” (priority 2021, published 2024).
